What was measured:
[1] = test system: Arabidopsis thaliana Landsberg erecta strain DW150-307; experiment: Growth and glycoprotein glycosylation in GUS-containing plants; format: in vivo; settings: for carbohydrate patterns of glycoproteins compared with control seeds: ANTS and 1,5-EDANS labeling, HPLC and PAGE; for decrease in number of inflorescence stems (average) / plant growth: M0809 22 mg/L or M0872 25 mg/L in MS agar medium
Experimental: Arabidopsis thaliana Landsberg erecta strain DW150-307 plants were propagated from seeds. Seeds were surface-sterilized with 70% ethanol (30 seconds) and 2% sodium hypochlorite (15 minutes), and then placed on a plant hormone-free MS agar medium. After incubation at 4° C. for 2 days, the seeds were cultured at 25° C. for one week while the daylight hours were kept to be 16 hours. The cotyledons were taken from the obtained sterile seedlings and then placed on an MS agar medium containing either deoxynojirimycin b-D-glucuronide methyl ester (M0809) (22 mg/L) or deoxymannonojirimycin b-D-glucuronidetriacetate, methyl ester (M0872) (25 mg/L) (regeneration medium in 9 cm Petri dish), and cultured under the same conditions as those described above for 6 days. Plants were transplanted into fresh media containing the same concentrations of M0809 or M0872 as above, and growth continued for an additional 19 days, until full seed pods were obtained. Plants grew normally on media containing the M0809 or M0872, except that the number of inflorescence stems was decreased (an average of 50%) in the treated plant specimens. Seed pods, floral and stem tissues from these plants were harvested, and seeds dried briefly in vacuo (10 mm Hg, 1 hour). Seeds were crushed, and carbohydrate content of all tissues analyzed using the ANTS and 1,5-EDANS labeling systems, followed by HPLC analysis and PAGE electrophoretic analysis.

[2] = test system: GUS-positive tomato (minitomato) plants; experiment: Negative selection of tomato transformants; format: in vivo; settings: M0627 3.5 mg/L, M0630 10 mg/L, M0632 10 mg·L, M0792 5 mg/L; MS media, soil or daily spray
Experimental: Tomato (cultivar, minitomato) seeds are surface-sterilized with 70% ethanol (30 seconds) and 2% sodium hypochlorite (15 minutes), and then placed on a plant hormone-free MS agar medium. The seeds are cultured at […] 23° C. in long-day (16 hours light/8 hours dark) cycles, under a mixture of Cool White and Gro-Lux/WS fluorescent lights (Osram, Sylvania) and sterile conditions. The cotyledons are taken from the obtained sterile seedlings and then placed on an MS agar medium containing 2 mg/l of Zeatin and 0.1 mg/l of IAA (regeneration medium) in 9 cm Petri dishes, and cultured under the same conditions as those described above for 2 days.
Agrobacterium tumefaciens strain LBA4404 suspension containing the binary plasmid pBI121 (Clontech, Palo Alto, Calif.) is used for transformation. The plasmid pBI121 carries the neomycin phosphotransferase (NPTII) gene and β-glucuronidase (GUS) gene. In this vector, the neomycin phosphotransferase (NPTII) gene is under the control of the nopaline synthase (nos) promoter and the terminator from nopaline synthase (nos) which provides polyadenylation signal. The neomycin phosphotransferase (NPTII) gene confers kanamycin resistance. The β-glucuronidase (GUS) activity is under the control of the cauliflower mosaic virus ^35S promoter, providing constitutive expression in all tissues, and the terminator from nopaline synthase (nos) provides polyadenylation. Agrobacterium tumefaciens is grown overnight at 28° C. in liquid YEP medium (Sambrook J., Fritsch E. F., Maniatis T., Molecular Cloning: a laboratory manual. 2nd ed., Cold Spring Harbor, N.Y., 1989) supplemented with 25 mg/l rifampicin, 50 mg/l streptomycin, and 50 mg/l kanamycin. An overnight culture is diluted with liquid TE medium to 4×10^8 cells/ml for transformation.
The cotyledons cultured for two days are collected in a sterilized Petri dish, and the Agrobacterium suspension is added to them to cause infection. Superfluous Agrobacterium suspension is removed from the cotyledons by using a sterilized filter paper. After further removing excess Agrobacterium suspension, a sterilized filter paper is placed on the medium in the Petri dish in order to prevent rapid propagation of Agrobacterium. The infected cotyledons are placed on this media and co-cultured for 24 hours.
The transfected cotyledons are then transferred into an agar screening medium (MS medium, 2% sucrose, 1 mg/l zeatin, 1 mg/l IAA, 1% agar, 50 mg/l kanamycin, 500 mg/l claforan, 1% agar) to select the GUS transformant plants. The regenerated shoots are then transferred into a new selecting medium to conduct further selection.

[3] = test system: Arabidopsis thaliana Landsberg erecta strain DW150-307 (DW); experiment: Plant growth on MS media containing conjugates, LFY::GUS recombinant; format: in vivo; settings: for floral tissue response of DW plants upon inflorescence / vegetative growth of DW plants: MS media containing conjugate
Text: (§1) Arabidopsis thaliana Landsberg erecta is a wild type (WT) strain derived from the Landsberg ecotype. Arabidopsis thaliana Landsberg erecta strain DW150-307 (DW) is a transgenic strain produced using the method of Blazquez et al., 1997, Development 124:3835-3844. The transgenic DW strain is homozygous for the LFY::GUS insertion and thus contains GUS under control of the full length LFY promoter that expresses E. coli β-glucuronidase. Expression of GUS in this strain is developmentally regulated, showing the highest levels 9 days after germination (at the onset of meristem floral initiation under a long-day, 16 h. light regime), but having basal levels in vegetative apices throughout secondary growth. Accordingly, GUS expression leads to production of the E. coli β-glucuronidase enzyme in floral and to a lesser extent in shoot meristem tissues of the plant. Isogenic homozygous plant strains were kindly provided by Dr. Detlef Weigel, Department of Biology, The Salk Institute, San Diego, Calif.
(§2) Wild type (WT) and recombinant (DW) plants were grown in MS media containing 0-100 ug/mL of conjugates M0630, M0632, or M0792 (prepared as set forth herein). All plants were grown at 23° C. in long-day (16 hours light/8 hours dark) cycles, under a mixture of Cool White and Gro-Lux/WS fluorescent lights (Osram, Sylvania) and sterile conditions.

wild-type potato plants = experiment: Negative selection of potato, wild type; format: in vivo; settings: M0627 3.5 mg/L, M0630 10 mg/L, M0632 10 mg·L, M0792 5 mg/L; MS media, soil or daily spray
wild-type tomato plants = experiment: Negative selection of tomato, wild type; format: in vivo; settings: M0627 3.5 mg/L, M0630 10 mg/L, M0632 10 mg·L, M0792 5 mg/L; MS media, soil or daily spray
[4] = test system: Arabidopsis thaliana Landsberg erecta wild type (WT); experiment: Plant growth on MS media containing conjugates, wild type; format: in vivo
Text: as §1, §2

[5] = test system: GUS-positive potato (May queen) plants; experiment: Negative selection of potato transformants; format: in vivo; settings: M0627 3.5 mg/L, M0630 10 mg/L, M0632 10 mg·L, M0792 5 mg/L; MS media, soil or daily spray
Experimental: Potato (May queen) pieces with sprouts are planted in a mixture of vermiculite and compost (1:1). After two weeks, the apical meristem culture of the grown sprouts is removed to obtain the sterile seedling plants. Sterile plants are then placed in MS liquid medium containing 2% sucrose, pH 5.7 (80 ml) and incubated with rotation at 25° C. in a well-lighted place to induce rooting. After two weeks, the rooted plants are transferred into MS liquid medium for microtuber induction (MS medium, 8% sucrose, pH 5.7, 40 ml medium in 100 ml Erlenmeyer flask) in the dark for 28 days. The microtubers are then cut into pieces (2 mm) and transferred into agar medium for regeneration (MS medium, 2% sucrose, 1 mg/l zeatin, 0.1 mg/l IAA, 1% agar). The pieces of the microtuber pre-cultured for two days are then immersed in an Agrobacterium tumefaciens strain LBA4404 suspension containing the binary plasmid pBI121 (Clontech, Palo Alto, Calif.) for transformation. The plasmid pBI121 carries the neomycin phosphotransferase (NPTII) gene and β-glucuronidase (GUS) gene. In this vector, the neomycin phosphotransferase (NPTII) gene is under the control of the nopaline synthase (nos) promoter and the terminator from nopaline synthase (nos) which provides polyadenylation signal. The neomycin phosphotransferase (NPTII) gene confers kanamycin resistance. The β-glucuronidase (GUS) activity is under the control of the cauliflower mosaic virus ^35S promoter, providing constitutive expression in all tissues, and the terminator from nopaline synthase (nos) provides polyadenylation. Agrobacterium tumefaciens was grown overnight at 28° C. in liquid YEP medium (Sambrook J., Fritsch E. F., Maniatis T., Molecular Cloning: a laboratory manual. 2nd ed., Cold Spring Harbor, N.Y., 1989) supplemented with 25 mg/l rifampicin, 50 mg/l streptomycin, and 50 mg/l kanamycin. An overnight culture is diluted with liquid TE medium to 4×10^8 cells/ml for transformation. A filter paper is placed on the agar medium, over the microtuber pieces and the co-culture is continued for 48 hours. The transfected microtubers are then washed 4-5 times in sterile distilled water to decrease the concentration of Agrobacterium tumefaciens and with a cefotaxime (250 mg/l) solution for 20 min, and then again with sterile distilled water (4-5 times). The microtubers are then transferred into an agar screening medium (MS medium, 2% sucrose, 1 mg/l zeatin, 1 mg/l IAA, 1% agar, 50 mg/l kanamycin, 500 mg/l Claforan, 1% agar). After about two months growth, the divided shoots are transferred into a rooting induction medium and then into a microtuber induction medium. The obtained GUS-positive plants are used for the analysis.

[6] = test system: E. coli CSH36/S90C and CSH22/S90C co-culture; experiment: Co-culture selection, colony growth on X-gal plates; format: cell-based; settings: 30 μg/ml chloramphenicol or 42 μg/ml M0165, plated on X-gal
Experimental: E. coli strains CSH36/S90C and CSH22/S90C were grown in co-culture and tested with the chloramphenicol galactoside pro-drug (M0165) described in Example 15, to show lack of translocation of drug released in β-galactosidase expressing cells to other cells in the culture, and therefore selection for the lacZ-cells. CSH36 is a constitutive mutant for lacZ and therefore produces β-galactosidase regardless of induction conditions. CSH22 is a deletion mutant for lacZ and is therefore uninducible. Each strain individually and both strains together were innoculated into 10 mL aliquots of M9 minimal media and grown shaking at 37° C. overnight. Overnight cultures (500 μL) were transferred into 10 mL fresh M9 media and grown to logarithmic phase for 4 hours prior to beginning the experiments. 1 mL of this culture was transferred to 10 ml fresh M9 media containing 30 μg/ml chloramphenicol, 42 μg/ml M0165, or no additions, and returned to the incubator. Growth curves were generated by removing aliquots of each culture at 30 minute intervals and reading absorbance at 420 nm. Remaining portions of the cultures were allowed to grow overnight, and final absorbance readings were taken. […] Plates were incubated at 37° C. for 48 hours, then evaluated for growth of white (indicating lacZ −, CSH22 cells) and blue (indicating lacZ +, CSH 36 cells) colonies.

[7] = 100 ug/mL in MS media (highest concentration)
[8] = lower concentrations in MS media

Compound	carbohydrate patterns of glycoproteins compared with control seeds [1]	decrease in number of inflorescence stems (average) [1] [%]	plant growth [1]	effect on GUS-positive plants [2]	growth phenotype of DW150-307 plants ([3]; 1 ug/mL for 32 days)	germination and survival of DW plants ([3]; media application, above the lowest concentration)	effect on wild-type plants (wild-type potato plants)	effect on wild-type plants (wild-type tomato plants)	growth of wild type plants [4, 7]	growth of wild type plants [4, 8]	effect on GUS-positive plants [5]	floral tissue response of DW plants upon inflorescence [3]	vegetative growth of DW plants [3]	colony growth after overnight co-culture [6]
COC(=O)C1OC(OCC2NCC(O)C(O)C2O)C(O)C(O)C1O [Example M0809, deoxynojirimycin b-D-glucuronide methyl ester]	modified in structure	50	grew normally											
COC(=O)C1OC(Oc2c(Br)cc(C#N)cc2Br)C(O)C(O)C1O [Example M0632, Bromoxynil-β-D-glucuronic acid methyl ester]				selective ablation	callus formation	either did not germinate or were ablated shortly after germination	does not affect growth or morphology	does not affect growth or morphology	slightly slower	comparable growth to the blank controls	selective ablation			
COC(=O)C1OC(OC(CC2CC(=O)NC(=O)C2)C2CC(C)CC(C)C2=O)C(OC(C)=O)C(OC(C)=O)C1OC(C)=O [Example M0792, Cycloheximide-β-D-glucuronic acid methyl ester triacetate]				selective ablation			does not affect growth or morphology	does not affect growth or morphology	slightly slower	comparable growth to the blank controls	selective ablation	floral tissues became chlorotic (brown) and became dehydrated and ablated	normal vegetative growth until inflorescence initiation	
COC(=O)C1OC(Oc2ccc(=O)[nH]n2)C(OC(C)=O)C(OC(C)=O)C1OC(C)=O [Example M0627, Maleic Hydrazide Beta-D-Glucuronide Triacetate, Methyl Ester]				selective ablation			does not affect growth or morphology	does not affect growth or morphology	slightly slower	comparable growth to the blank controls	selective ablation			
COC(=O)C1OC(OCC2NCC(O)C(O)C2O)C(OC(C)=O)C(OC(C)=O)C1OC(C)=O [Example M0872, deoxymannonojirimycin b-D-glucuronidetriacetate, methyl ester]	modified in structure	50	grew normally											
O=C(N[C@H](CO)[C@H](O)c1ccc([N+](=O)[O-])cc1)C(Cl)Cl [chloramphenicol, reference compound]														no growth of either cell type
COC(=O)C1OC(Oc2c(Br)cc(C#N)cc2Br)C(OC(C)=O)C(OC(C)=O)C1OC(C)=O [Example M0630, bromoxynil-β-D-glucuronic acid methyl ester triacetate]				selective ablation			does not affect growth or morphology	does not affect growth or morphology			selective ablation	floral tissues became chlorotic (brown) and became dehydrated and ablated	normal vegetative growth until inflorescence initiation	
